Test results from ChEMBL document CHEMBL2150905, “Discovery of Disubstituted Imidazo[4,5-b]pyridines and Purines as Potent TrkA Inhibitors” (ACS Med Chem Lett, 2012).
In brackets after ≈: the same amount, converted by molar mass. One block for each molecule: values may come before it.

Assays:
[1] = Half life in Han Wistar rat at 10 mg/kg, po and 3 mg/kg, iv; format: ADME, organism-based; conditions: in vivo
[2] = Oral bioavailability in Han Wistar rat at 10 mg/kg; format: ADME, organism-based; conditions: in vivo
[3] = target: Voltage-gated inwardly rectifying potassium channel KCNH2 (Homo sapiens, UniProt Q12809)
in vivo = conditions: Han Wistar, rat, iv, 3 mg/kg
Description: Clearance in Han Wistar rat at 10 mg/kg, po and 3 mg/kg, iv

in vitro [4] = conditions: rat, hepatocytes
Description: Intrinsic clearance in rat hepatocytes assessed per million cells by LC/MS/MS analysis

physchem = conditions: buffer
Description: Aqueous solubility of the compound

[5] = target: T1, Tyrosine-protein kinase ABL1 (Homo sapiens, UniProt P00519); assay: Inhibition of Abl
[6] = target: T2, High affinity nerve growth factor receptor (Homo sapiens, UniProt P04629); assay: Inhibition of TrkA
[7] = target: Receptor-type tyrosine-protein kinase FLT3 (Homo sapiens, UniProt P36888); assay: Inhibition of Flt3
[8] = target: T3, Tyrosine-protein kinase Fgr (Homo sapiens, UniProt P09769); assay: Inhibition of Fgr
[9] = target: T4, Tyrosine-protein kinase BTK (Homo sapiens, UniProt Q06187); assay: Inhibition of BTK
[10] = target: T5, Serine/threonine-protein kinase SIK1 (Homo sapiens, UniProt P57059); assay: Inhibition of SIK
[11] = target: Phosphorylase b kinase gamma catalytic chain, liver/testis isoform (Homo sapiens, UniProt P15735); assay: Inhibition of PhKg2
[12] = target: T6, Fibroblast growth factor receptor 1 (Homo sapiens, UniProt P11362); assay: Inhibition of FGFR1
[13] = target: T7, Mitogen-activated protein kinase 14 (Homo sapiens, UniProt Q16539); assay: Inhibition of SAPK2a
Focal adhesion kinase 1 [14] = target: T8, Focal adhesion kinase 1 (Homo sapiens, UniProt Q05397); assay: Inhibition of FAK
[15] = target: T9, Proto-oncogene tyrosine-protein kinase Src (Homo sapiens, UniProt P12931); assay: Inhibition of cSrc
[16] = target: Testis-specific serine/threonine-protein kinase 2 (Homo sapiens, UniProt Q96PF2); assay: Inhibition of TSSK2
[17] = target: T10, ALK tyrosine kinase receptor (Homo sapiens, UniProt Q9UM73); assay: Inhibition of ALK
[18] = target: T11, Mitogen-activated protein kinase kinase kinase 9 (Homo sapiens, UniProt P80192); assay: Inhibition of MLK1
[19] = target: T12, Vascular endothelial growth factor receptor 3 (Homo sapiens, UniProt P35916); assay: Inhibition of FLT4
[20] = target: T13, Tyrosine-protein kinase JAK2 (Homo sapiens, UniProt O60674); assay: Inhibition of JAK2
[21] = target: Tyrosine-protein kinase ITK/TSK (Homo sapiens, UniProt Q08881); assay: Inhibition of Itk
[22] = target: T14, Serine/threonine-protein kinase WNK3 (Homo sapiens, UniProt Q9BYP7); assay: Inhibition of WNK3
[23] = target: BDNF/NT-3 growth factors receptor (Homo sapiens, UniProt Q16620); assay: Inhibition of TrkB
[24] = target: Proto-oncogene tyrosine-protein kinase receptor Ret (Homo sapiens, UniProt P07949); assay: Inhibition of Ret
[25] = target: Tyrosine-protein kinase Lck (Homo sapiens, UniProt P06239); assay: Inhibition of Lck
[26] = target: Receptor-type tyrosine-protein kinase FLT3 (Homo sapiens) (UniProt P36888); assay: Inhibition of Flt3 at 10 uM
[27] = target: T3, Tyrosine-protein kinase Fgr; assay: Inhibition of Fgr at 10 uM
[28] = target: T4, Tyrosine-protein kinase BTK; assay: Inhibition of BTK at 10 uM
[29] = target: T5, Serine/threonine-protein kinase SIK1; assay: Inhibition of SIK at 10 uM
[30] = target: Phosphorylase b kinase gamma catalytic chain, liver/testis isoform (Homo sapiens) (UniProt P15735); assay: Inhibition of PhKg2 at 10 uM
[31] = target: T6, Fibroblast growth factor receptor 1; assay: Inhibition of FGFR1 at 10 uM
[32] = target: T7, Mitogen-activated protein kinase 14; assay: Inhibition of SAPK2a at 10 uM
Focal adhesion kinase 1 [33] = target: T8, Focal adhesion kinase 1; assay: Inhibition of FAK at 10 uM
[34] = target: T9, Proto-oncogene tyrosine-protein kinase Src; assay: Inhibition of cSrc at 10 uM
[35] = target: T10, ALK tyrosine kinase receptor; assay: Inhibition of ALK at 10 uM
[36] = target: T11, Mitogen-activated protein kinase kinase kinase 9; assay: Inhibition of MLK1 at 10 uM
[37] = target: T12, Vascular endothelial growth factor receptor 3; assay: Inhibition of FLT4 at 10 uM
[38] = target: T13, Tyrosine-protein kinase JAK2; assay: Inhibition of JAK2 at 10 uM
[39] = target: Tyrosine-protein kinase ITK/TSK (Homo sapiens) (UniProt Q08881); assay: Inhibition of Itk at 10 uM
[40] = target: Muscle, skeletal receptor tyrosine-protein kinase (Homo sapiens, UniProt O15146); assay: Inhibition of MuSk
[41] = target: T1, Tyrosine-protein kinase ABL1; conditions: 10 uM
Description: Inhibition of Abl at 10 uM

[42] = target: T2, High affinity nerve growth factor receptor; conditions: 10 uM
Description: Inhibition of TrkA at 10 uM

[43] = target: Testis-specific serine/threonine-protein kinase 2 (Homo sapiens) (UniProt Q96PF2); conditions: 10 uM
Description: Inhibition of TSSK2 at 10 uM

[44] = target: T14, Serine/threonine-protein kinase WNK3; conditions: 10 uM
Description: Inhibition of WNK3 at 10 uM

in vitro [45] = conditions: human, plasma
Description: Fraction unbound in human plasma

[46] = Clearance in beagle dog at 10 mg/kg, po and 2 mg/kg, iv; format: ADME, organism-based, Canis lupus familiaris; conditions: in vivo
[47] = Half life in beagle dog at 10 mg/kg, po and 2 mg/kg, iv; format: ADME, organism-based, Canis lupus familiaris; conditions: in vivo
[48] = Oral bioavailability in beagle dog at 10 mg/kg; format: ADME, organism-based, Canis lupus familiaris; conditions: in vivo
NIH3T3 [49] = assay: Antitumor activity against 3T3 cells overexpressing constitutively active TRKA allografted in CrTac:Ncr-Foxn1nu mouse assessed as tumor stasis at 5 mg/kg, po BID for 7 days; format: functional
Mus musculus [50] = assay: Toxicity in 3T3 cells overexpressing constitutively active TRKA allografted CrTac:Ncr-Foxn1nu mouse assessed as weight loss at 1 to 5 mg/kg, po BID for 7 days; format: organism-based, NIH3T3; set-up: dose 1-5 mg/kg, route oral; conditions: in vivo, 168 h
NIH3T3 [51] = assay: animal or person; conditions: Mus musculus, NIH3T3, po, 168 h, read-out: TGI
Description: Antitumor activity against 3T3 cells overexpressing constitutively active TRKA allografted in CrTac:Ncr-Foxn1nu mouse assessed as tumor growth inhibition at 1 mg/kg, po BID for 7 days

NIH3T3 [52] = assay: Antitumor activity against 3T3 cells overexpressing constitutively active TRKA allografted in CrTac:Ncr-Foxn1nu mouse assessed as tumor regression at 5 mg/kg, po BID for 7 days; format: functional
NIH3T3 [53] = assay: Antitumor activity against 3T3 cells overexpressing constitutively active TRKA allografted in CrTac:Ncr-Foxn1nu mouse assessed as tumor growth delay time at 25 mg/kg, po BID for 7 days; format: functional
Mus musculus [54] = assay: Toxicity in 3T3 cells overexpressing constitutively active TRKA allografted CrTac:Ncr-Foxn1nu mouse assessed as weight loss at 1 to 25 mg/kg, po BID for 7 days; format: organism-based, NIH3T3; set-up: dose 1-25 mg/kg, route oral; conditions: in vivo, 168 h
NIH3T3 [55] = assay: Antitumor activity against 3T3 cells overexpressing constitutively active TRKA allografted in CrTac:Ncr-Foxn1nu mouse assessed as tumor regression at 25 mg/kg, po BID for 7 days; format: functional

Sequence of Voltage-gated inwardly rectifying potassium channel KCNH2 (Q12809 whole entry): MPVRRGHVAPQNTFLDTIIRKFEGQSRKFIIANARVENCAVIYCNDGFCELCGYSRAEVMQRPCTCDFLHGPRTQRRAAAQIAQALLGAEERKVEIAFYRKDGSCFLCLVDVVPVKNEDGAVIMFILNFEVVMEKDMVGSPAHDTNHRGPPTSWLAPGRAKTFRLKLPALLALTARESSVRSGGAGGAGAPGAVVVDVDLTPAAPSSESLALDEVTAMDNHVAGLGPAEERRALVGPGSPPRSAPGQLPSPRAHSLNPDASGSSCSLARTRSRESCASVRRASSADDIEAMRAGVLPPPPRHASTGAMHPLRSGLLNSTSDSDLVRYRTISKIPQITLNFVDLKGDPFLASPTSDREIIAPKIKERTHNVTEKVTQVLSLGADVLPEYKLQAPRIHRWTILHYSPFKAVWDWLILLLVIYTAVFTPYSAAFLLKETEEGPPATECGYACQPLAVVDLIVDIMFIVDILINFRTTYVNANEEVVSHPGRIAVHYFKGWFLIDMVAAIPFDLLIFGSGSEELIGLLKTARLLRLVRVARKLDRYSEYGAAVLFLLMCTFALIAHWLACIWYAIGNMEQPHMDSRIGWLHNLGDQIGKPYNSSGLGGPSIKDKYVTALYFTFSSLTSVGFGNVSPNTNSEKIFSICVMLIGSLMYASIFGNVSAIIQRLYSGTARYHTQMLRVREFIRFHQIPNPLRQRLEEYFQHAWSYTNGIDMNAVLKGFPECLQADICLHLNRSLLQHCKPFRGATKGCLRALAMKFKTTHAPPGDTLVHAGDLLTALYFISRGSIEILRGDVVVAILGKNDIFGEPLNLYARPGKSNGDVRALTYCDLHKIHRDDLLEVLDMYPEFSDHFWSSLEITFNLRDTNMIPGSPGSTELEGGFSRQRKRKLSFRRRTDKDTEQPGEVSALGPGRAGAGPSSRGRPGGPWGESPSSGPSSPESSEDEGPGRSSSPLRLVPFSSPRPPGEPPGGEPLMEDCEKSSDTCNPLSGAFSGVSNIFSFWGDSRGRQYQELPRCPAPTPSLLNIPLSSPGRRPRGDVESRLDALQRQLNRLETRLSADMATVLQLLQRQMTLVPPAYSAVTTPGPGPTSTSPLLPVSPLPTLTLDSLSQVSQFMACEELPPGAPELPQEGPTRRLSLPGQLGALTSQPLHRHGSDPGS
T13 sequence (O60674 whole entry): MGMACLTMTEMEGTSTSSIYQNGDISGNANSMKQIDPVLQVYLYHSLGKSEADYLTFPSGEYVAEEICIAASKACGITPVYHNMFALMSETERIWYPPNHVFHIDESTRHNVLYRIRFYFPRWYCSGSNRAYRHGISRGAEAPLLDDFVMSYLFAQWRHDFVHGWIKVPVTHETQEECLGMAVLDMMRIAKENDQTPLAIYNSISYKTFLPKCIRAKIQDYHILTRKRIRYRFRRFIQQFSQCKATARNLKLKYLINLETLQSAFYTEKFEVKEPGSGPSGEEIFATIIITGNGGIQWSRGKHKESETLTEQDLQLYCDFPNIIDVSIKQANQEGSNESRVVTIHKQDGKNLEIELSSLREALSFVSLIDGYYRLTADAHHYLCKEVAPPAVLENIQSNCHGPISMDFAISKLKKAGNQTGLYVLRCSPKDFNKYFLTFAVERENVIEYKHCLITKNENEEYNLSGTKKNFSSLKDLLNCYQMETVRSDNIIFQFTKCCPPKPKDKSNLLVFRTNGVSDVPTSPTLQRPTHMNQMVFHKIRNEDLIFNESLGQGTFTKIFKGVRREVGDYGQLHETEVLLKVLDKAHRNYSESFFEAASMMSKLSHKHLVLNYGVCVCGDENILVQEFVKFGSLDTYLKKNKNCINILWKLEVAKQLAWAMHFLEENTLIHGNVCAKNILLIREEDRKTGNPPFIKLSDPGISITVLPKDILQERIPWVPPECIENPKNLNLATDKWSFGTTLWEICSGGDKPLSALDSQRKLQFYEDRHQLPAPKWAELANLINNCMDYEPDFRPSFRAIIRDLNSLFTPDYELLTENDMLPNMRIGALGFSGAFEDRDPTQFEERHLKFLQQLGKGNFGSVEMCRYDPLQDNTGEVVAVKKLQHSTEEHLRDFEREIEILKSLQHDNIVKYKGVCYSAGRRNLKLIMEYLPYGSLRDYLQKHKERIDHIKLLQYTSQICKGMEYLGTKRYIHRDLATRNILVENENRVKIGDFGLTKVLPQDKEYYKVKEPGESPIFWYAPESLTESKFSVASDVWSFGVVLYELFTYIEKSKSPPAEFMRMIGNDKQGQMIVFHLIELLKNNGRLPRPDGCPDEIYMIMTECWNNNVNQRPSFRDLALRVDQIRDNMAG
T7 sequence (Q16539 whole entry): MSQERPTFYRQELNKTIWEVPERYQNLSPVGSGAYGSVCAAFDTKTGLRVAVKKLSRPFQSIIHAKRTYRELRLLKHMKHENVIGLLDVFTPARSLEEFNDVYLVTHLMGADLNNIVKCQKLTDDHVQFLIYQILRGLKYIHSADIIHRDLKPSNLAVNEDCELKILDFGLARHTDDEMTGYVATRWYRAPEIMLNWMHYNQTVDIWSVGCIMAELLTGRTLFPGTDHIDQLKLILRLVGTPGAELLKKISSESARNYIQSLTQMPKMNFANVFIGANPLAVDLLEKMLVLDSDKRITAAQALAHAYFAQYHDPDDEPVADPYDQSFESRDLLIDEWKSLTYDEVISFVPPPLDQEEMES
T5 sequence (P57059 whole entry, canonical isoform): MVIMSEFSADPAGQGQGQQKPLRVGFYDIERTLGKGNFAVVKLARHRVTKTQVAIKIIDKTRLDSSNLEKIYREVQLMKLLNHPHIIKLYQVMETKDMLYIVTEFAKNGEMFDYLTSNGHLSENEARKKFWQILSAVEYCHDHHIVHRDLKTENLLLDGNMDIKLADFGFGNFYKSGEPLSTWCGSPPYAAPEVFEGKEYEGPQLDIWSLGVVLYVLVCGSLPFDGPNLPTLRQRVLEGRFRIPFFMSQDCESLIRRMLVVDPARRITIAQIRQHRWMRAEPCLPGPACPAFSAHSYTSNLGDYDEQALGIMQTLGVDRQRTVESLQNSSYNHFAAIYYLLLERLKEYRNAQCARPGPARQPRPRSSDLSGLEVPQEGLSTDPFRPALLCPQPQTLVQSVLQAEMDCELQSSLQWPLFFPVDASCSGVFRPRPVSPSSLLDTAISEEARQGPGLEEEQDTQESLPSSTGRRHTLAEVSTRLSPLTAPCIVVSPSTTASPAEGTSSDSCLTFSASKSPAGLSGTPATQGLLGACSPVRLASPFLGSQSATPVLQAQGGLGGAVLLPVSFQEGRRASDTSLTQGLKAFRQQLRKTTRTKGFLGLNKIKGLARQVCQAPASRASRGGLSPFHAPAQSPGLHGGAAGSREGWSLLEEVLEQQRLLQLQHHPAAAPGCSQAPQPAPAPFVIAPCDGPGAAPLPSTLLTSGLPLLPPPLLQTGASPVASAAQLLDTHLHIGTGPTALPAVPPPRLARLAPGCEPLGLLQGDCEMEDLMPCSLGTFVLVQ
T1 sequence (P00519 whole entry): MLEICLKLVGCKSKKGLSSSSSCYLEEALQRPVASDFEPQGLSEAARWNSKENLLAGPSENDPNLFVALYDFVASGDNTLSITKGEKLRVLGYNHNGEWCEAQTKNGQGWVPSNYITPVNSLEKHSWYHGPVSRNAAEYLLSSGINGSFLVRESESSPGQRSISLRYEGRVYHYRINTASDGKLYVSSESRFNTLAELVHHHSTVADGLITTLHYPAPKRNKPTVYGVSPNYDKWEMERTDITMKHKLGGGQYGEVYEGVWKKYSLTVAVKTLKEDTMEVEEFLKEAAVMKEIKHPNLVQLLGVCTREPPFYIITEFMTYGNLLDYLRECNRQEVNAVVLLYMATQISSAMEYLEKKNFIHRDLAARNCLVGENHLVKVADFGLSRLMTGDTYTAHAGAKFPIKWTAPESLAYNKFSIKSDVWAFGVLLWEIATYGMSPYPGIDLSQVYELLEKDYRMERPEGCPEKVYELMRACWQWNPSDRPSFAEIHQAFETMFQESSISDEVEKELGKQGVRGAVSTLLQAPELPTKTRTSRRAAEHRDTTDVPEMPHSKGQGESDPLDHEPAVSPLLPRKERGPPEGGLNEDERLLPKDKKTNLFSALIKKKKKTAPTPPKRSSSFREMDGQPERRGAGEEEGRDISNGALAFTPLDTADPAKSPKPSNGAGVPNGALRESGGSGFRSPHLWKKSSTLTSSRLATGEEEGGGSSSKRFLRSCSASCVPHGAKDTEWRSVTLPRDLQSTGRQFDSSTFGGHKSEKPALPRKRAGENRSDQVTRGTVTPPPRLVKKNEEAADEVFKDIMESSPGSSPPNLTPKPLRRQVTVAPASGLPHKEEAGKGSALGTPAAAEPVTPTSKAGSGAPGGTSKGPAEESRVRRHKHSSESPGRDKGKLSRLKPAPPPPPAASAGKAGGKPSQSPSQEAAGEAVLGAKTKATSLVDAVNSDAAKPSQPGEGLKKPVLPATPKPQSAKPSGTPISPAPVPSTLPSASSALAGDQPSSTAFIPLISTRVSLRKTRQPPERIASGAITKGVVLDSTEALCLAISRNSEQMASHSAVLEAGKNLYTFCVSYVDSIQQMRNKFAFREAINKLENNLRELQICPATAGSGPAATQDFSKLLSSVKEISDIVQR
T9 sequence (P12931 2-536 limits assumed): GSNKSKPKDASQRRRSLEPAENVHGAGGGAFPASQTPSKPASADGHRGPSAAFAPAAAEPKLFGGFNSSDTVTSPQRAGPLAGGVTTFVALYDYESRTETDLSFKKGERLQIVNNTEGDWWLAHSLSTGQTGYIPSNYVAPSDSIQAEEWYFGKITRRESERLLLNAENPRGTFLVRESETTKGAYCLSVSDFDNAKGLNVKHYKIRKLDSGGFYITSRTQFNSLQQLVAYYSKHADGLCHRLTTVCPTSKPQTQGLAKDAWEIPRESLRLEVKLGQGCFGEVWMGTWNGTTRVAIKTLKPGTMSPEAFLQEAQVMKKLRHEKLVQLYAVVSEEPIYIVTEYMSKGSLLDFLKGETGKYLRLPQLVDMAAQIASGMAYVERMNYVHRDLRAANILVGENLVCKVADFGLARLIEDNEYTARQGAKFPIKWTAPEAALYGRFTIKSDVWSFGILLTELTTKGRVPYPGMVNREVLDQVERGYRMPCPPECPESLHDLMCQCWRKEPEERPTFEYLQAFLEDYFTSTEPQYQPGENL

half-life [1]: 3.2 h
bioavailability [2]: 41%
clearance (in vivo): 33 mL/min/kg
hepatocyte CLint (in vitro [4]): 29 µL/min/1e6 cells
solubility (physchem): 150 µM (≈ 58.1 µg/mL)
Compound: COc1cc(Nc2nc3c(cc2F)ncn3[C@@H](CO)c2ccc(F)cn2)n[nH]1
IC50 [3]: > 32000 nM

half-life [1]: 0.97 h
bioavailability [2]: 6.7%
IC50 [5]: 1.2 nM
IC50 [6]: 1.4 nM
IC50 [7]: 2.1 nM
IC50 [8]: 2.2 nM
IC50 [9]: 3.5 nM
IC50 [10]: 5.5 nM
IC50 [11]: 6.1 nM
IC50 [12]: 8.7 nM
IC50 [13]: 13.4 nM
IC50 (Focal adhesion kinase 1 [14]): 17.2 nM
IC50 [15]: 18.2 nM
IC50 [16]: 30.6 nM
IC50 [17]: 34.1 nM
IC50 [18]: 44.3 nM
IC50 [19]: 64 nM
IC50 [20]: 68.3 nM
IC50 [21]: 72.2 nM
IC50 [22]: 99.8 nM
IC50 [23]: < 100 nM
IC50 [24]: < 100 nM
IC50 [25]: < 100 nM
inhibition [26]: > 30%
inhibition [27]: > 30%
inhibition [28]: > 30%
inhibition [29]: > 30%
inhibition [30]: > 30%
inhibition [31]: > 30%
inhibition [32]: > 30%
inhibition (Focal adhesion kinase 1 [33]): > 30%
inhibition [34]: > 30%
inhibition [35]: > 30%
inhibition [36]: > 30%
inhibition [37]: > 30%
inhibition [38]: > 30%
inhibition [39]: > 30%
IC50 [40]: < 100 nM
inhibition [41]: > 30%
inhibition [42]: > 30%
inhibition [43]: > 30%
inhibition [44]: > 30%
clearance (in vivo): 41 mL/min/kg
hepatocyte CLint (in vitro [4]): 42 µL/min/1e6 cells
fraction unbound (in vitro [45]): 0.06
Compound: CC(C)Oc1cc(-n2cnc3ccc(N[C@@H](C)c4ccc(F)cn4)nc32)n[nH]1
IC50 [3]: > 32000 nM

half-life [1]: 1.2 h
bioavailability [2]: 33%
clearance (in vivo): 39 mL/min/kg
hepatocyte CLint (in vitro [4]): 48 µL/min/1e6 cells
solubility (physchem): 590 µM (≈ 215 µg/mL)
fraction unbound (in vitro [45]): 0.16
Compound: C[C@H](Nc1ccc2ncn(-c3cc(C4CC4)[nH]n3)c2n1)c1ncc(F)cn1

half-life [1]: 2.3 h
bioavailability [2]: 29%
clearance [46]: 15.2 mL/min/kg
half-life [47]: 1 h
bioavailability [48]: 17%
clearance (in vivo): 46 mL/min/kg
hepatocyte CLint (in vitro [4]): 13 µL/min/1e6 cells
solubility (physchem): 250 µM (≈ 99.4 µg/mL)
fraction unbound (in vitro [45]): 0.081
Compound: CC(C)Oc1cc(-n2cnc3ccc(N[C@@H](CO)c4ccc(F)cn4)nc32)n[nH]1
Activity (NIH3T3 [49]): -47%
Activity (Mus musculus [50]): < 5%
IC50 [3]: 52000 nM
inhibition in vivo at 1 mg/kg (NIH3T3 [51]): 12%

half-life [1]: 0.82 h
bioavailability [2]: 92%
clearance (in vivo): 45 mL/min/kg
solubility (physchem): > 1000 µM
fraction unbound (in vitro [45]): 0.39
Compound: Cc1cc(-n2cnc3ccc(N[C@@H](C)c4ncc(F)cn4)nc32)n[nH]1
IC50 [3]: > 32000 nM

half-life [1]: 1.2 h
bioavailability [2]: 54%
clearance (in vivo): 51 mL/min/kg
hepatocyte CLint (in vitro [4]): 31 µL/min/1e6 cells
solubility (physchem): 220 µM (≈ 91.4 µg/mL)
fraction unbound (in vitro [45]): 0.058
Compound: CC(C)Oc1cc(Nc2nc3c(cc2F)ncn3[C@@H](CO)c2ccc(F)cn2)n[nH]1
Activity (NIH3T3 [52]): -51%
Time (NIH3T3 [53]): 4 days
Activity (Mus musculus [54]): < 5%
Activity (NIH3T3 [55]): -63%
inhibition in vivo at 1 mg/kg (NIH3T3 [51]): 30%

half-life [1]: 3.8 h
bioavailability [2]: 29%
clearance (in vivo): 130 mL/min/kg
hepatocyte CLint (in vitro [4]): 24 µL/min/1e6 cells
solubility (physchem): 480 µM (≈ 184 µg/mL)
fraction unbound (in vitro [45]): 0.31
Compound: CC(C)Oc1cc(-n2cnc3cnc(N[C@@H](C)c4ncc(F)cn4)nc32)n[nH]1
IC50 [3]: > 32000 nM
